Measured values published in DBAASP.
Converted amounts (≈) assume the structure as drawn.

Key:
Assay in all cases: ≥ marks a high value that may be exact or a test limit, other limits are often not marked, values filed in µg/mL are converted to µM
[1] = tested on: Pseudomonas aeruginosa ATCC 27853
[2] = tested on: Escherichia coli ATCC 25922
[3] = tested on: Staphylococcus aureus ATCC 25923

Compound | MIC [1] [µM] | MIC [2] [µM] | MIC [3] [µM]
CC[C@H](C)[C@H](NC(=O)[C@H](C)NC(=O)CNC(=O)[C@H](C)NC(=O)[C@H](CCCCN)NC(=O)[C@H](CO)NC(=O)[C@H](C)NC(=O)[C@H](CCSC)NC(=O)CN)C(=O)N[C@@H](C)C(=O)NCC(=O)N[C@@H](CCCCN)C(=O)N[C@H](C(=O)N[C@@H](C)C(=O)N[C@@H](CCCCN)C(=O)N[C@H](C(=O)N[C@@H](C)C(=O)N[C@@H](Cc1c[nH]c2ccccc12)C(=O)N[C@@H](CCCCN)C(=O)N[C@@H](C)C(=O)N[C@@H](CC(C)C)C(=O)NCC(=O)NCC(=O)N[C@@H](C)C(N)=O)C(C)C)[C@@H](C)CC [GMASKAGAIAGKIAKVAWKALGGA] | – | 12.5 (≈ 27.9 µg/mL) | –
C[C@H](NC(=O)[C@H](Cc1c[nH]c2ccccc12)NC(=O)[C@H](CCCN=C(N)N)NC(=O)[C@H](Cc1c[nH]c2ccccc12)NC(=O)[C@H](C)NC(=O)[C@H](CCCN=C(N)N)NC(=O)[C@@H](N)Cc1ccc(O)cc1)C(=O)N[C@@H](Cc1c[nH]c2ccccc12)C(=O)N[C@@H](CCCN=C(N)N)C(=O)N[C@@H](Cc1c[nH]c2ccccc12)C(=O)N[C@@H](CCCN=C(N)N)C(N)=O [YRAWRWAWRWR] | 11.8 (≈ 20 µg/mL) | 5.91 (≈ 9.99 µg/mL) | 1.48 (≈ 2.5 µg/mL)
CC[C@H](C)[C@H](NC(=O)[C@@H](NC(=O)[C@H](CCCCN)NC(=O)[C@H](CC(C)C)NC(=O)[C@H](CC(C)C)NC(=O)CN)C(C)C)C(=O)N[C@@H](CCCCN)C(=O)N[C@H](C(=O)N[C@@H](CC(C)C)C(=O)N[C@@H](CC(C)C)C(N)=O)[C@@H](C)O [GLLKVIKTLL] | – | 2.73 (≈ 3 µg/mL) | 2.73 (≈ 3 µg/mL)
CC[C@H](C)[C@H](NC(=O)CNC(=O)[C@H](CCSC)NC(=O)[C@H](CCCCN)NC(=O)[C@H](C)NC(=O)[C@H](CC(C)C)NC(=O)[C@H](CCCCN)NC(=O)[C@H](CCC(=O)O)NC(=O)[C@H](CC(C)C)NC(=O)CNC(=O)[C@H](CCCCN)NC(=O)[C@H](CC(C)C)NC(=O)[C@@H](NC(=O)[C@H](CO)NC(=O)[C@H](CC(C)C)NC(=O)[C@H](C)N)[C@@H](C)CC)C(=O)N[C@@H](C)C(=O)N[C@@H](CC(C)C)C(=O)N[C@H](C(=O)N[C@@H](CC(N)=O)C(=O)N[C@H]1CSSC[C@@H](C(=O)O)NC(=O)[C@H](CCCCN)NC(=O)[C@H](CCCCN)NC(=O)[C@H]([C@@H](C)O)NC(=O)[C@H](C)NC(=O)[C@H](CCCCN)NC1=O)[C@@H](C)O [ALSILKGLEKLAKMGIALTNCKATKKC] | – | 28 (≈ 79.7 µg/mL) | –
CC(C)C[C@H](NC(=O)[C@H](Cc1ccccc1)NC(=O)[C@@H]1CCCN1C(=O)[C@H](C)NC(=O)[C@H](C)NC(=O)[C@H](C)NC(=O)[C@@H]1CCCN1C(=O)[C@H](Cc1ccccc1)NC(=O)[C@H](CCCN=C(N)N)NC(=O)[C@H](CCCN=C(N)N)NC(=O)[C@@H](N)C(C)C)C(=O)N[C@@H](CCCN=C(N)N)C(=O)N[C@@H](CCCN=C(N)N)C(N)=O [VRRFPAAAPFLRR] | – | > 128 | –
CC(C)C[C@H](NC(=O)[C@H](Cc1ccccc1)NC(=O)[C@@H]1CCCN1C(=O)[C@H](Cc1ccc(O)cc1)NC(=O)[C@H](Cc1c[nH]c2ccccc12)NC(=O)[C@H](Cc1ccc(O)cc1)NC(=O)[C@@H]1CCCN1C(=O)[C@H](Cc1ccccc1)NC(=O)[C@H](CCCN=C(N)N)NC(=O)[C@H](CCCN=C(N)N)NC(=O)[C@@H](N)C(C)C)C(=O)N[C@@H](CCCN=C(N)N)C(=O)N[C@@H](CCCN=C(N)N)C(N)=O [VRRFPYWYPFLRR] | – | 16 (≈ 29.7 µg/mL) | –
CC[C@H](C)[C@H](NC(=O)CNC(=O)[C@H](CCCCN)NC(=O)[C@@H](NC(=O)[C@H](CC(C)C)NC(=O)[C@H](CO)NC(=O)CNC(=O)[C@H](CC(C)C)NC(=O)CNC(=O)[C@H](C)NC(=O)[C@H](CCCCN)NC(=O)[C@H](Cc1ccccc1)NC(=O)[C@@H](NC(=O)[C@H](CCC(=O)O)NC(=O)[C@H](CCCCN)NC(=O)[C@H](CC(C)C)NC(=O)CN)[C@@H](C)CC)C(C)C)C(=O)N[C@@H](C)C(=O)N[C@@H](C)C(=O)N[C@@H](Cc1cnc[nH]1)C(=O)N[C@H](C(=O)N[C@@H](C)C(=O)N[C@@H](CC(N)=O)C(N)=O)C(C)C [GLKEIFKAGLGSLVKGIAAHVAN] | – | 25 (≈ 57.3 µg/mL) | 200 (≈ 459 µg/mL)
CC[C@H](C)[C@H](NC(=O)[C@H](CCCN=C(N)N)NC(=O)[C@H](CCCCN)NC(=O)[C@H](CC(C)C)NC(=O)[C@H](CC(C)C)NC(=O)CN)C(=O)N[C@@H](CCCCN)C(=O)N[C@@H](CC(N)=O)C(=O)N[C@@H](CC(C)C)C(=O)N[C@@H](CC(C)C)C(N)=O [GLLKRIKNLL] | – | 18.8 (≈ 22 µg/mL) | 10.3 (≈ 12 µg/mL)
CC[C@H](C)[C@H](NC(=O)[C@H](CCCN=C(N)N)NC(=O)[C@H](CCCCN)NC(=O)[C@H](CC(C)C)NC(=O)[C@H](CC(C)C)NC(=O)CN)C(=O)N[C@@H](CCCCN)C(=O)N[C@@H](CC(C)C)C(=O)N[C@@H](CC(C)C)C(=O)N[C@@H](CC(C)C)C(N)=O [GLLKRIKLLL] | – | 11.1 (≈ 13 µg/mL) | 6 (≈ 6.99 µg/mL)

The next lines start with the values.

MIC [1] [µM] | MIC [2] [µM] | MIC [3] [µM] | Compound
2 (≈ 5.83 µg/mL) | – | – | CC[C@H](C)[C@H](NC(=O)[C@@H]1CCCN1C(=O)[C@H](CCCCN)NC(=O)[C@H](CC(C)C)NC(=O)[C@H](C)NC(=O)[C@@H](NC(=O)[C@@H](NC(=O)[C@H](CC(C)C)NC(=O)[C@@H](NC(=O)[C@H](CCCCN)NC(=O)[C@H](CCCCN)NC(=O)[C@H](C)NC(=O)[C@H](C)NC(=O)[C@H](CO)NC(=O)[C@@H](NC(=O)[C@H](CC(C)C)NC(=O)[C@H](CCCCN)NC(=O)[C@H](CCCCN)NC(=O)[C@H](CC(C)C)NC(=O)[C@H](Cc1ccccc1)NC(=O)[C@H](CCCCN)NC(=O)[C@H](CCCCN)NC(=O)[C@H](Cc1c[nH]c2ccccc12)NC(=O)[C@@H](N)CCCCN)[C@@H](C)O)C(C)C)[C@@H](C)O)[C@@H](C)O)C(=O)N[C@@H](CO)C(=O)N[C@@H](CO)C(=O)O [KWKKFLKKLTSAAKKVLTTALKPISS]
– | 3 (≈ 5.83 µg/mL) | – | CC(C)C[C@H](NC(=O)[C@H](C)NC(=O)[C@H](CCCCN)NC(=O)[C@H](C)NC(=O)[C@H](C)NC(=O)CNC(=O)[C@H](CCCCN)NC(=O)[C@H](CC(C)C)NC(=O)[C@H](CC(C)C)NC(=O)[C@H](CC(=O)O)NC(=O)[C@H](CCCCN)NC(=O)[C@H](Cc1c[nH]c2ccccc12)NC(=O)CN)C(=O)N[C@H](C(=O)N[C@@H](CCCCN)C(=O)N[C@H](C(=O)N[C@H](C(=O)N[C@@H](Cc1ccccc1)C(N)=O)C(C)C)[C@@H](C)O)C(C)C [GWKDLLKGAAKALVKTVF]
– | > 54.4 | > 54.4 | CC[C@H](C)[C@H](NC(=O)[C@H](CCCN=C(N)N)NC(=O)[C@H](CCCCN)NC(=O)[C@H](CC(C)C)NC(=O)[C@H](CC(C)C)NC(=O)CN)C(N)=O [GLLKRI]
47.5 (≈ 50 µg/mL) | 19 (≈ 20 µg/mL) | 9.5 (≈ 9.99 µg/mL) | NC(=O)[C@H](Cc1c[nH]c2ccccc12)NC(=O)[C@H](CCCN=C(N)N)NC(=O)[C@H](Cc1c[nH]c2ccccc12)NC(=O)[C@H](CCCN=C(N)N)NC(=O)[C@H](Cc1c[nH]c2ccccc12)NC(=O)[C@@H](N)Cc1ccc(O)cc1 [YWRWRW]
– | 11.3 (≈ 21.7 µg/mL) | – | CC(C)[C@H](NC(=O)[C@@H]1CCCN1C(=O)[C@@H](N)Cc1ccccc1)C(=O)N[C@H](C(=O)N[C@@H](Cc1c[nH]c2ccccc12)C(=O)N[C@@H](CCCN=C(N)N)C(=O)N[C@@H](Cc1c[nH]c2ccccc12)C(=O)N[C@@H](Cc1c[nH]c2ccccc12)C(=O)N[C@@H](CCCN=C(N)N)C(=O)N[C@@H](Cc1c[nH]c2ccccc12)C(=O)N[C@@H](Cc1c[nH]c2ccccc12)C(=O)N[C@@H](CCCN=C(N)N)C(=O)NCC(N)=O)[C@@H](C)O [FPVTWRWWRWWRG]
